Ends that are not written are not given here.
Assays:
rat fetal long bone [1] = assay: Potentiating effect on the bone resorption inhibiting action of calcitonin, PTH-stimulated rat fetal long bone culture (45Ca release); assay type: cell-based, Sprague-Dawley rat; conditions: for potentiation of the inhibitory action of calcitonin on PTH-stimulated bone resorption (in words): calcitonin 3 mU/ml, compound 25 μg/ml
Procedure: (§1) Determination of bone resorption was performed by the method of Raisz [J. Clin. Invest. 44, 103-116 (1965)]. Thus, a Sprague-Dawley rat on the 19th day of pregnancy was subcutaneously injected with 50μ Ci of ^45 Ca (isotope of calcium, CaCl2 solution), and was laparotomized on the following day. The embryos were aseptically taken out, the forelimbs (radius and ulna) were cut off from the trunk under a binocular dissecting microscope, and the connective tissue and cartilage were removed as much as possible to prepare bone samples. Each bone sample was preincubated at 37° C. for 24 hours in 0.6 ml of the medium containing 2 mg/ml of bovine serum albumin in BGJb medium (Fitton-Jackson modification) [GIBCO Laboratories, Grand Island, N.Y. 14072 U.S.A.]. Then, the sample was further incubated for 3 days in the same medium as above in which 10 μg/ml of compound A had been incorporated. Then, the radioactivity of ^45 Ca in the medium and that of ^45 Ca in the bone were measured and the percentage (%) of ^45 Ca released from the bone into the medium was calculated by the following formula. [formula]
Potentiating effect of 7-(1-hydroxycarbonylethyl)-oxy-3-(4-hydroxyphenyl)-4H-1-benzopyran-4-one (hereinafter referred to as "compound B") and 7-(1-ethoxycarbonylethyl)-oxy-3-phenyl-4H-1-benzopyran-4-one (hereinafter referred to as "compound C") on the bone resorption inhibiting action of calcitonin in rat fetal long bone culture
The bone samples prepared in the same manner as Test Example 1 were preincubated for 24 hours in the same medium as that prepared in Test Example 1, which contains bovine serum albumin in BGJb medium (Fitton-Jackson modification). Then, in the concomitant presence of PTH (parathyroid hormone, a bone resorption stimulant), calcitonin and compound B or compound C, the samples were further incubated for 3 days and the percentage of ^45 Ca released into the medium was calculated by means of the same formula as that in Test Example 1. […]

ICR mice = conditions: mouse, in vivo
Procedure: (§2) Five-week-old ICR mice and 5-week-old Sprague-Dawley rats were used in groups of 10 males and 10 females, and suspensions of compound A or compound B in olive oil were administered orally [2,500, 5,000 and 10,000 mg/kg of each compound] or subcutaneously [1,250, 2,500 and 5,000 mg/kg]. The animals were kept under observation for 14 days.

Sprague-Dawley rats = conditions: rat, in vivo
Procedure: as §2

rat fetal long bone [2] = assay: Bone resorption inhibiting activity in rat fetal long bone culture (45Ca release); assay type: cell-based, Sprague-Dawley rat; conditions: 3 days
Procedure: Bone resorption inhibiting activity of 7-(1-hydroxycarbonylethyl)oxy-3-phenyl-4H-1-benzopyran-4-one (hereinafter referred to as "compound A") in rat fetal long bone culture
as §1
As control, the bones of the embryos from the same litter were similarly incubated in the absence of compound A for 3 days.

| Compound | potentiation of the inhibitory action of calcitonin on PTH-stimulated bone resorption (in words) (rat fetal long bone [1]) | LD50 (ICR mice) | LD50 (Sprague-Dawley rats) | suppression of bone resorption (in words) (rat fetal long bone [2]; 10 μg/ml) | 45Ca (%) released (rat fetal long bone [2]; compound 10 μg/ml, 37° C, mean ± standard deviation, six bones, control 23.6 ± 3.9, * p < 0.05 vs control) | 45Ca (%) released (rat fetal long bone [1]; control II group: PTH + calcitonin 3 mU/ml, no compound, 3 days, PTH alone (control I) 39.7 ± 1.5) |
| --- | --- | --- | --- | --- | --- | --- |
| CCOC(=O)C(C)Oc1ccc2c(=O)c(-c3ccccc3)coc2c1 (stereo not drawn) [compound C, 7-(1-ethoxycarbonylethyl)-oxy-3-phenyl-4H-1-benzopyran-4-one] | potentiated the inhibitory action of calcitonin on PTH-stimulated bone resorption | – | – | – | – | – |
| CC(Oc1ccc2c(=O)c(-c3ccc(O)cc3)coc2c1)C(=O)O (stereo not drawn) [compound B, 7-(1-hydroxycarbonylethyl)-oxy-3-(4-hydroxyphenyl)-4H-1-benzopyran-4-one] | potentiated the inhibitory action of calcitonin on PTH-stimulated bone resorption | could not be calculated | could not be calculated | – | – | – |
| CC(Oc1ccc2c(=O)c(-c3ccccc3)coc2c1)C(=O)O (stereo not drawn) [compound A, 7-(1-hydroxycarbonylethyl)oxy-3-phenyl-4H-1-benzopyran-4-one] | – | could not be calculated | could not be calculated | suppressed bone resorption | 18.5 ± 2.2% | – |
| calcitonin: calcitonin, bone resorption inhibitor used with PTH in control II group (CGNLSTCMLGTYTQDFNKFHTFPQTAIGVGAP; ends and bridges not checked; cysteine pairing not given here; UniProt P01258 85-116, looked up) [reference compound] | – | – | – | – | – | 35.9 ± 4.9% |

Source: patent US4644012A, “Treatment for osteoporosis” (Takeda Chemical Industries, Ltd., priority 1983, dated 1987)
